Assay results from paper PMC3030572, “Antamanide, a Derivative of Amanita phalloides, Is a Novel Inhibitor of the Mitochondrial Permeability Transition Pore” (PLoS ONE, 2011).
“Also recorded” adds a separate entry of the source.

Tests used:
[1] = test system: mitochondrial permeability transition pore (PTP); type: biochemical, mouse
Method: A, chemical structure of AA. B, D, Ca^2+ retention capacity (CRC) either in phosphate (Pi) buffer (B) or in arsenate (Asi) buffer (D). Calcium Green-5N fluorescence is reported as arbitrary units on the y axis.
(§1) Mitochondria were isolated either from livers of C57BL/6 mice through sequential centrifugations, or from cells, as described. To obtain mitochondria, cells were disrupted with a glass-Teflon potter in a buffer composed by 250 mM sucrose, 10 mM Tris-HCl, 0.1 mM EGTA-Tris, pH 7.4. Nuclei and plasma membrane fractions were separated by a first mild centrifugation (700× g, 10 min), and mitochondria were then spinned down at a higher speed (7000× g, 10 min). All procedures were carried out at 0–4°C.
(§2) PTP opening was detected as a fluorescence increase.

[2] = test system: mitochondrial permeability transition pore (PTP), wild-type fibroblasts; test: CRC assay, mitochondria isolated from wild-type mouse fibroblasts; type: biochemical; conditions: Figure 3B
Method: (§3) Figure 3 Effect of AA on respiration and PTP opening in mitochondria of wild-type or CyP-D knock-out mouse fibroblasts. A, upper part: Western blot analysis assessing CyP-D expression in fibroblasts obtained from either wild-type or CyP-D knock-out mice; HKII was utilized to verify protein load; lower part: representative experiment showing oxygen consumption as assessed by polarography (see Methods) in mitochondria isolated from wild-type fibroblasts in the absence (a) or presence (b) of 8 µM AA. Experiments were started by adding 0.6 mg of mitochondria (Mito), followed by 100 µM ADP and 50 µM 2,4-dinitrophenol (DNP) (arrows). Each experiment was repeated at least three times. Oxygen consumption is reported as percentage of initial value on the y axis. B, bar graphs report the ratio between the CRC detected in the presence (CRC) and absence (CRC0) of increasing concentrations of AA, in mitochondria from either wild-type fibroblasts (left) or CyP-D knock-out fibroblasts (right).
as §1, §2

[3] = test system: mitochondrial permeability transition pore (PTP), CyP-D knock-out fibroblasts; test: CRC assay, mitochondria isolated from CyP-D knock-out mouse fibroblasts; type: biochemical; conditions: 25°C, Figure 3B
Method: as §3, with “(right). […] Results are mean±SD of at least 4 experiments.” for “(right).”
Mitochondria were isolated either from livers of C57BL/6 mice through sequential centrifugations, or from cells, as described. To obtain mitochondria, cells were disrupted with a glass-Teflon potter in a buffer composed by 250 mM sucrose, 10 mM Tris-HCl, 0.1 mM EGTA-Tris, pH 7.4. […]
as §2

[4] = test system: mitochondrial permeability transition pore (PTP), HeLa cells; test: CRC assay, mitochondria isolated from HeLa cells; type: biochemical, human; conditions: Figure 5A
Method: (§4) Figure 5 Effect of AA on mitochondrial potential of HeLa cells. A, bar graphs report the ratio between the CRC detected in the presence (CRC) and absence (CRC0) of increasing concentrations of AA in mitochondria from HeLa cells. […] B,C cytofluorimetric analysis of mitochondrial depolarization. HeLa cells were incubated with the TMRM probe and treated for 1 hour with the reported concentrations of either clotrimazole (CTM) or TAT-HK peptide. An unrelated TAT-linked peptide (TAT-Ctr) is used as a negative control. […] Bar graphs in B display the percentage of cells with depolarized mitochondria (mean±SD, n = 4). […] Histograms in C report a representative experiment, where cells with polarized and depolarized mitochondria are indicated in red and grey, respectively.
as §1, §2

mouse liver mitochondria = test: mitochondrial respiration assay, mouse liver mitochondria; type: biochemical; conditions: polarography, Clark electrode, 25°C; data not shown
Method: Mitochondrial oxygen consumption was measured polarographically at 25°C with a Clark oxygen electrode (Yellow Springs Instruments, OH, USA). Mitochondria (0.6 mg per experimental point) were incubated in a solution of 130 mM KCl, 10 mM Tris-Mops, 1 mM Pi-Tris, 20 mM EGTA-Tris and 2 µM rotenone/5 mM succinate to assay basal respiration (state 4). ADP (200 µM) was subsequently added to measure state 3 respiration, followed by the uncoupling agent dinitrophenol (100 µM) to assess the maximal respiration rate.

HeLa cells = type: cell-based, human; conditions: 30 min preincubation, TMRM, n = 4
Method: as §4
Flow cytometry recordings were performed as described, [51], [52]. Briefly, at the end of the incubation, cells were resuspended in 135 mM NaCl, 10 mM HEPES, 5 mM CaCl2 and incubated at 37°C in either TMRM (10 nM) to detect mitochondrial depolarization (reduced TMRM staining), or in FITC-conjugated Annexin-V and propidium iodide (PI, 1 µg/ml), to detect phosphatidylserine exposure on the cell surface (increased FITC-conjugated Annexin-V staining) and loss of plasma membrane integrity (PI permeability and staining). […] Samples were analyzed on a FACSCanto II flow cytometer (Becton Dickinson, San Diego, CA, USA). Data acquisition and analysis were performed using FACSDiva software.

[5] = test system: IL-2-induced multisystem organ edema; conditions: ref [5]; cited from earlier work
Text: (§5) Antamanide (AA) is a monocyclic, homodetic decapeptide isolated from the poisonous mushroom Amanita phalloides. […] Little is known about the biochemical mechanisms underlying these diverse bioactivities. To explain its antitoxic activity, ...

animal model = conditions: ref [4]; cited from earlier work
Text: as §5

[6] = test system: hepatocyte membrane transporter for the phallotoxin phalloidin and for the amatoxin alpha-amanitin; conditions: proposed; ref [6], [7]; cited from earlier work
Text: as §5

tumour cell models = conditions: in vitro; ref [3]; cited from earlier work
Text: as §5

[7] = AA at various concentrations, mean±SD of at least 4 experiments, Student's t test

Antamanide [AA]
CRC/CRC0: difference from CRC of untreated mitochondria ([1]; AA at various concentrations, Figure 1C and D, mean±SD of at least 4 experiments, Student's t test): significant difference (Student's t test analysis; *: p<0.01)
concentration at which the effect reaches a plateau (concentration-response CRC) ([1]; Figure 2B, mean±SD of at least 4 experiments): about 20 µM
PTP inhibition in arsenate ([1]; arsenate (Asi) buffer, Figure 1B, D): abrogated in the presence of arsenate; also recorded: act as pore inhibitors only in Pi buffer
additivity of PTP inhibition with CsA ([1]; combination with CsA, Figure 1C): not additive with that of CsA
additivity of PTP inhibition with Ub0 ([1]; combination with Ub0, Figure 1C, t test #: p<0.01): AA did increase inhibition by Ub0; also recorded: additive with that of Ub0
PTP inhibition (CRC) ([1]; phosphate-containing medium, Calcium Green-5N, 25°C): AA inhibited pore opening, similar to the PTP inhibitors CsA or Ubiquinone 0
CRC/CRC0: difference from CRC of untreated mitochondria [2, 7]: significant difference (Student's t test analysis; *: p<0.01)
additivity of PTP inhibition with CsA ([2]; combination with CsA): not enhanced by CsA; also recorded: not additive
PTP inhibition (CRC) ([2]; isolated mitochondria, 25°C): AA inhibited the pore in mitochondria from wild-type fibroblasts
PTP inhibition (CRC) [3]: totally ineffective
CRC/CRC0: difference from CRC of untreated mitochondria [4, 7]: significant difference (Student's t test analysis; *: p<0.01)
additivity of PTP inhibition with CsA ([4]; combination with CsA): the effect of AA did not add to that of CsA; also recorded: not additive
PTP inhibition (CRC) ([4]; mitochondria from HeLa cells): AA inhibited the pore also in mitochondria isolated from HeLa cells
oxygen consumption (mouse liver mitochondria): unaffected
reversal of CTM-induced mitochondrial depolarization (HeLa cells; then CTM 1 hour): significantly decreased the percentage of cells with mitochondria depolarized by CTM (Student's t test analysis; *: p<0.01); also recorded: similarly reverted
reversal of TAT-HK-induced mitochondrial depolarization (HeLa cells; then TAT-HK 1 hour): similarly reverted
attenuation of edema [5]: attenuates IL-2-induced multisystem organ edema
antitumor action (animal model): displays an antitumor action in an animal model
antagonism of hepatocyte transporter for phalloidin and alpha-amanitin [6]: competitively antagonizes a hepatocyte membrane transporter
tumor cell growth inhibition (tumour cell models): inhibits tumor cell growth in vitro
